{
  "source": "paper PMC9600550",
  "about": "“The pH Robustness of Bacterial Sensing” (mBio, 2022)",
  "key": {"McpV-LBD": {"target": "McpV-LBD (Sinorhizobium meliloti, UniProt Q7APD1)", "sequence (Q7APD1 entry or part of it)": "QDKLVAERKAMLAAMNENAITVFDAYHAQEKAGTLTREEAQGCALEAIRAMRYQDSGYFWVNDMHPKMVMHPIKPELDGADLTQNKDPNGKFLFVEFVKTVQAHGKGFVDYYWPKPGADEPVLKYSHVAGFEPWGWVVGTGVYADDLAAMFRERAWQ", "test": "ITC titration of McpV-LBD with propionate at different pH", "assay_type": "binding, Sinorhizobium meliloti RU11/001"}, "McpQ-LBD": {"target": "T1, McpQ-LBD (Pseudomonas putida, UniProt Q88D09)", "T1 construct": "pET28b(+) derivative containing a DNA fragment encoding the McpQ-LBD; made in house", "T1 sequence (Q88D09 45-282)": "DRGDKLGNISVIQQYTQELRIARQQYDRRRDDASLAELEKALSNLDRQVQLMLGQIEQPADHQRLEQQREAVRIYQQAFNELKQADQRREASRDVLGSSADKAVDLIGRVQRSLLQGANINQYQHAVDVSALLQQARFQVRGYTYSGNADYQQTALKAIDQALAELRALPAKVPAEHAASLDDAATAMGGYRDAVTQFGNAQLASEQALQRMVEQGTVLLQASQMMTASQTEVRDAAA", "test": "ITC titration of McpQ-LBD with citrate at different pH", "assay_type": "binding, P. putida KT2440", "conditions": "25°C"}, "McpU-LBD": {"target": "McpU-LBD (Pseudomonas putida, UniProt Q88NI1)", "sequence (Q88NI1 50-284)": "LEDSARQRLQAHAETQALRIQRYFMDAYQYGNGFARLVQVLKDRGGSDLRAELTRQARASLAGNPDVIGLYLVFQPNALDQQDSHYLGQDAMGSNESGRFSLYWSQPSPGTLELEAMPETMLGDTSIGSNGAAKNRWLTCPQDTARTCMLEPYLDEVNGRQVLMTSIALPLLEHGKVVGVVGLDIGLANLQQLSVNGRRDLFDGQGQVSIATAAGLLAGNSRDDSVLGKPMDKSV", "test": "biochemical", "procedure": "(§1) To assess the pH dependence of ligand-binding, freshly purified proteins were dialyzed overnight into the buffers described in Table S1 and submitted to microcalorimetric titration.\n(§2) Freshly purified proteins were dialyzed into the buffers specified in Table S1 and introduced into the sample cell of an VP-microcalorimeter (MicroCal). Proteins at 15 to 100 μM were titrated with 0.25 to 10 mM ligand solutions that were made up in dialysis buffer. For pH-active ligands, the pH of the ligand solutions was adjusted to that of the dialysis buffer by the addition of concentrated HCl or NaOH. Titrations of MBP and McpV-LBD were conducted at 15°C to favor endothermic contributions to binding heats, whereas the remaining titrations were carried out at 25°C. Raw titration data were integrated, corrected for ligand-dilution heats and normalized with the ligand concentrations. Resulting data were fitted with the “One Binding site model” of the MicroCal version of ORIGIN. Provided are the dissociation constants derived from one experiment and the error of curve-fitting."}, "TodS-Nter": {"target": "TodS-Nter (Pseudomonas putida, UniProt E0X9C7)", "sequence (E0X9C7 1-584)": "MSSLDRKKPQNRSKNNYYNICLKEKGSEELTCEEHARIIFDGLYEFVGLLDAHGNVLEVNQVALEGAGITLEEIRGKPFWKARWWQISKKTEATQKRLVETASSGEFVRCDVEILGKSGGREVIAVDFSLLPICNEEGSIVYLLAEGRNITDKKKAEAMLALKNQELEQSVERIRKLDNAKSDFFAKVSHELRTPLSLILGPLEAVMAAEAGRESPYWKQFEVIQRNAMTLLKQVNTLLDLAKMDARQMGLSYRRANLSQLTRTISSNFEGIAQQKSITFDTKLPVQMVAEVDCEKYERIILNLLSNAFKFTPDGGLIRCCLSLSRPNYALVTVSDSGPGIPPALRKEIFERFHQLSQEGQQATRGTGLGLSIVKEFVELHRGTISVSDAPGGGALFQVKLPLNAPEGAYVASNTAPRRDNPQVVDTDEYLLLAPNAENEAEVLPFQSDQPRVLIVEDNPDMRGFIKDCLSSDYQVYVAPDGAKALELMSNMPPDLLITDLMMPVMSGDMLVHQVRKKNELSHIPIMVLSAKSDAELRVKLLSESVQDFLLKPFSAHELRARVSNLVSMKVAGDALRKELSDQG", "test": "biochemical", "procedure": "as §1, §2"}, "TtgV": {"target": "T2, TtgV (Pseudomonas putida, UniProt Q93PU6)", "T2 construct": "made in house", "T2 sequence (Q93PU6 whole entry)": "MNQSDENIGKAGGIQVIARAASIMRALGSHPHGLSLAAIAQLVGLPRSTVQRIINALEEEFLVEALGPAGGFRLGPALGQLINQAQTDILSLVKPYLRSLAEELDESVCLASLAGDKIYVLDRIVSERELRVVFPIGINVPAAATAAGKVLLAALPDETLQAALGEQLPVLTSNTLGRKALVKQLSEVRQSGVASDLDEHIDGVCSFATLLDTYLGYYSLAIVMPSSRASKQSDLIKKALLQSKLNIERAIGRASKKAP", "test": "ITC titration of TtgV with benzonitrile at different pH", "assay_type": "binding, P. putida DOT-T1E", "conditions": "25°C"}, "Tar-LBD [1]": {"target": "T3, Tar-LBD (Escherichia coli, UniProt P07017)", "T3 construct": "A DNA fragment encoding the Tar-LBD (amino acids 31 to 188) was amplified from genomic DNA of E. coli K12; His tag (from pET28b(+)) (N); made in house; host or cells: Escherichia coli BL21(DE3)", "T3 sequence (P07017 31-188)": "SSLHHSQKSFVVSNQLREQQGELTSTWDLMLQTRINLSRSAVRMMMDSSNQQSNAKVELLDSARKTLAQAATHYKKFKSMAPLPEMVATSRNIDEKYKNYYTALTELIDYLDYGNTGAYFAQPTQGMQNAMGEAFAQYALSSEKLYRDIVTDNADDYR", "test": "ITC titration of Tar-LBD with L-aspartate at different pH", "assay_type": "binding, E. coli K12", "conditions": "for pH range of binding: defined as binding with a KD below 1 mM"}, "Tar": {"target": "T4, Tar (Escherichia coli, UniProt P07017)", "T4 construct": "expressed in transfected cells; host or cells: receptorless E. coli VS181, plasmid pSB13 (pKG116 derivative)", "T4 sequence (P07017 whole entry)": "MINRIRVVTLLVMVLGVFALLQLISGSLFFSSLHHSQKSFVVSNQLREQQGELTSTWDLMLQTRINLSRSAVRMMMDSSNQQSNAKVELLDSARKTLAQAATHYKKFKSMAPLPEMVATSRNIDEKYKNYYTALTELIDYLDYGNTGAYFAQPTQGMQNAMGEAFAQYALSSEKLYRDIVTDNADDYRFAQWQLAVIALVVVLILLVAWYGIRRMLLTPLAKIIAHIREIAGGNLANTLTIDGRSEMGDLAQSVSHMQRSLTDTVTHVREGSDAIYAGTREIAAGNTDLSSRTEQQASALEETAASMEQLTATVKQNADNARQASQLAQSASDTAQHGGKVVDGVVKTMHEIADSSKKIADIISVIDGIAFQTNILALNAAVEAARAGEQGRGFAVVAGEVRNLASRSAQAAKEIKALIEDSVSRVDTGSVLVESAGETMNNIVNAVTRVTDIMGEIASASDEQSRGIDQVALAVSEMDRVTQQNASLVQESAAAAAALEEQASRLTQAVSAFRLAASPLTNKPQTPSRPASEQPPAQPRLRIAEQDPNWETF", "test": "FRET (CheY-YFP/CheZ-CFP) chemotaxis pathway response, Tar as sole chemoreceptor", "assay_type": "cell-based", "conditions": "E. coli VS181 with Tar as sole chemoreceptor, read-out: EC50 (half-maximal effective concentration), FRET titration"}, "Tar-LBD [2]": {"target": "T3, Tar-LBD", "test": "Sedimentation-velocity analytical ultracentrifugation of Tar-LBD with and without L-Asp", "parameters": "species or system E. coli K12", "conditions": "1 mM ligand; all pH values analysed (3.5, 5.0, 7.0, 10.0)", "quoted_text": "To estimate the sedimentation coefficient expected for the monomeric and dimeric states of the Tar-LBD, a hydrodynamic model was generated from the 3D structure of the protein (pdb ID 4Z9H) ([45]). Using the HYDROPRO software, the theoretical sedimentation coefficients were s(20,w) = 2.12 S for the monomer and 3.54 S for the dimer (Fig. 5A).\nExperiments were conducted on a ProteomeLab XL-I instrument (Beckman-Coulter) equipped with interference and absorbance optics. Sedimentation was carried out at 42,000 rpm and 10°C in an eight-hole Ti-50 Beckman Coulter rotor and monitored with absorbance optics at 280 nm in continuous mode. Samples were dialyzed into 4 different buffers, namely, 10 mM citric acid/sodium citrate, pH 3.5; 10 mM citric acid/sodium citrate, pH 5.0; 3 mM Tris, 3 mM PIPES, 3 mM MES, pH 7.0, and 10 mM Na2CO3/NaHCO3, pH 10.0. […] Density and viscosity of the buffer were calculated with [sequence] […] To assign the sedimentation coefficient observed to the corresponding oligomeric species, theoretical s values were calculated via HYDROPRO ([92]) hydrodynamic modeling software, applied to the 3D structure of the Tar-LBD monomer and dimer (pdb ID 4H9Z), with a 2.9 Å radius for the primary elements."}, "Tar-LBD [3]": {"target": "T3, Tar-LBD", "test": "Differential scanning calorimetry of Tar-LBD thermal unfolding in presence of L-Asp", "parameters": "species or system E. coli K12", "conditions": "1 mM L-Asp", "procedure": "Differential scanning calorimetry (DSC) provides information on the thermodynamics of protein unfolding. At 5.0, the optimal pH for binding and dimerization, Tar-LBD formed a sharp peak with or without 1 mM L-Asp (Fig. 5B and C, and Table S3), indicative of highly cooperative unfolding. […] We thus conclude that at all pH values tested, at least some of the protein was present in the dimeric form and capable of binding ligand.\nExperiments were conducted on a MicroCal DSC-PEAQ system (Malvern Panalytical) at a scan rate of 90°C/h over a temperature range of 10°C to 85°C. Calorimetric cells (operating volume 0.134 mL) were kept under pressure (60 lb/in^2) to prevent sample degassing. Buffer-buffer baselines obtained after each assay were subtracted from the signal obtained from each of the samples. Protein samples were prepared as detailed in the “Analytical ultracentrifugation” section. The calorimetric enthalpies were estimated by integration of the transition peaks after subtracting the buffer-buffer baselines and fitting the curves to a “Non-two-state” model using MicroCal DSC-PEAQ software. For graphical clarity of the plots, baselines were manually curated and raw data were smoothed with the Savitzky-Golay algorithm."}, "MBP": {"target": "T5, MBP (Escherichia coli, UniProt P0AEX9)", "T5 construct": "His tag (from pET28b(+)) (N); made in house; host or cells: Escherichia coli BL21(DE3)", "test": "ITC titration of maltose-binding protein (MBP) with D-maltose at different pH", "parameters": "species or system E. coli K12"}, "[4]": {"conditions": "15°C, defined as binding with a KD below 1 mM"}, "[5]": {"conditions": "pH 6.0, read-out: KD at pH optimum"}, "[6]": {"conditions": "ITC, 25°C, defined as binding with a KD below 1 mM"}},
  "note": "“And” between values parts separate entries of the source, which are not always exact repeats. Identical values can stand only once. Like-named read-outs stand apart in the source and are kept apart here.",
  "data": [
    {"smiles": "CCC(=O)O", "note": "[Propionate]", "values": [
      {"measurement": "width of pH range of high-affinity binding", "setting": "McpV-LBD", "result": 6.5, "unit": "pH units"},
      {"measurement": "pH optimum", "setting": "McpV-LBD; 15°C", "result": 7.0},
      {"measurement": "pH range of binding", "setting": "McpV-LBD; [4]", "result": "5.0-11.5"},
      {"measurement": "Kd", "setting": "McpV-LBD; 15°C, pH 7.0, read-out: KD at pH optimum", "result": 33.1, "unit": "µM"}
    ]},
    {"smiles": "O=C(O)CC(O)(CC(=O)O)C(=O)O", "note": "[Citrate]", "values": [
      {"measurement": "pH optimum", "setting": "McpQ-LBD", "result": 6.0},
      {"measurement": "Kd", "setting": "McpQ-LBD; [5]", "result": 153, "unit": "µM"}
    ]},
    {"smiles": "NCCCCN", "note": "[Putrescine]", "values": [
      {"measurement": "Kd", "setting": "McpU-LBD", "result": 700, "unit": "nM"},
      {"measurement": "pH optimum", "setting": "McpU-LBD; ITC, 25°C", "result": 8.5},
      {"measurement": "pH range of binding", "setting": "McpU-LBD; [6]", "result": "4.5-11.5"}
    ]},
    {"smiles": "Cc1ccccc1", "note": "[Toluene]", "values": [
      {"measurement": "Kd", "setting": "TodS-Nter", "result": 250, "unit": "nM"},
      {"measurement": "width of pH range of ligand recognition", "setting": "TodS-Nter; ITC", "result": 4, "unit": "pH units"},
      {"measurement": "pH optimum", "setting": "TodS-Nter; ITC, 25°C", "result": 6.5},
      {"measurement": "pH range of binding", "setting": "TodS-Nter; [6]", "result": "5.5-9.5"}
    ]},
    {"smiles": "N#Cc1ccccc1", "note": "[Benzonitrile]", "values": [
      {"measurement": "pH optimum", "setting": "TtgV", "result": 6.0},
      {"measurement": "pH range of binding", "setting": "TtgV; defined as binding with a KD below 1 mM", "result": "5.0-9.0"},
      {"measurement": "Kd", "setting": "TtgV; [5]", "result": 67.6, "unit": "µM"}
    ]},
    {"smiles": "N[C@@H](CC(=O)O)C(=O)O", "note": "[L-aspartate]", "values": [
      {"measurement": "pH optimum", "setting": "Tar-LBD [1]; 25°C", "result": 5.0},
      {"measurement": "pH range of binding", "setting": "Tar-LBD [1]; 25°C", "result": "3.0-10.5"},
      {"measurement": "pH range of binding", "setting": "Tar-LBD [1]; 25°C, listed as L-Asp", "result": "≤ 10.5"},
      {"measurement": "Kd", "setting": "Tar-LBD [1]; 25°C, pH 5.0, read-out: KD at pH optimum", "result": 400, "unit": "nM"},
      {"measurement": "width of pH range of high-affinity binding", "setting": "Tar-LBD [1]; pH 3.0 to 10.5", "result": 7.5, "unit": "pH units"},
      {"measurement": "EC50", "setting": "Tar; pH 5.5", "result": "166 ± 20", "unit": "nM"},
      {"measurement": "EC50", "setting": "Tar; pH 7.0", "result": "202 ± 20", "unit": "nM"},
      {"measurement": "EC50", "setting": "Tar; pH 8.5", "result": "77 ± 10", "unit": "nM"},
      {"measurement": "EC50", "setting": "Tar; pH 9.5", "result": "141 ± 20", "unit": "nM"},
      {"measurement": "effect on Tar-LBD monomer-dimer equilibrium", "setting": "Tar-LBD [2]", "result": "shifted the equilibrium almost completely to the dimeric species"},
      {"measurement": "Tm of Tar-LBD thermal unfolding", "setting": "Tar-LBD [3]; pH 3.5, two transitions", "result": "44.28 ºC and 64.51 ºC"},
      {"measurement": "Tm of Tar-LBD thermal unfolding", "setting": "Tar-LBD [3]; pH 5.0", "result": "47.73 ºC"},
      {"measurement": "ΔH of Tar-LBD thermal unfolding", "setting": "Tar-LBD [3]; pH 5.0", "result": 106.4, "unit": "kcal/mol"},
      {"measurement": "Tm of Tar-LBD thermal unfolding", "setting": "Tar-LBD [3]; pH 7.0, two transitions", "result": "36.48 ºC and 42.20 ºC"},
      {"measurement": "Tm of Tar-LBD thermal unfolding", "setting": "Tar-LBD [3]; pH 10.0", "result": "35.11 ºC"},
      {"measurement": "ΔH of Tar-LBD thermal unfolding", "setting": "Tar-LBD [3]; pH 10.0", "result": 98.6, "unit": "kcal/mol"}
    ]},
    {"smiles": "OC[C@H]1O[C@H](O[C@H]2[C@H](O)[C@@H](O)[C@H](O)O[C@@H]2CO)[C@H](O)[C@@H](O)[C@@H]1O", "note": "[D-maltose]", "values": [
      {"measurement": "width of pH range of ligand recognition", "setting": "MBP", "result": 8.5, "unit": "pH units"},
      {"measurement": "pH optimum", "setting": "MBP; 15°C", "result": 9.0},
      {"measurement": "pH range of binding", "setting": "MBP; [4]", "result": "2.5-11.0"}
    ]}
  ]
}
